The results in this text go back to patent publication US20100113392A1, “METHODS OF USING SAHA AND BORTEZOMIB FOR TREATING MULTIPLE MYELOMA” (priority 2006, published 2010).

Data set [1] deals with relapsed and refractory multiple myeloma. In words: Phase I clinical trial of oral Vorinostat plus Bortezomib: response. The following applies: dexamethasone 20 mg p.o. days 4-8 added to Vorinostat and Bortezomib for nonresponders. The class given is in vivo, human.
Data set [2] in a line: Phase I clinical trial of oral Vorinostat plus Bortezomib: MTD, safety and tolerability. The class given is in vivo, human. The following applies: Vorinostat 500 mg daily with Bortezomib […]^2, cycle 1, 2 patients. On the procedure:
This was a multicenter, open label, escalating dose, Phase I study of Vorinostat in combination with intravenous Bortezomib injection in patients eligible for Bortezomib therapy. […] Patients on Dose Levels 1-5 were administered Bortezomib as an intravenous (IV) bolus on Days 1, 4, 8 and 11.
At the beginning of the study, five 3-patient cohorts were evaluated at various dose levels as outlined in the Table 1 and Table 2 below.
In the absence of treatment delays due to adverse events, treatment continued for 8-cycles or until one of the following criteria applied: • a) disease progression • b) intercurrent illness that prevents further administration of treatment • c) unacceptable adverse events • d) patient decides to withdraw from the study • e) general or specific changes in the patient's condition render the patient unacceptable for further treatment in the judgment of the investigator. • f) if the patient achieves a complete remission, they continue on the study for a total of 8 cycles.
Further studies enrolled up to 40 adult patients with multiple myeloma, relapsed or refractory disease. One treatment cycle was 3 weeks or 21 days. […] Although the current FDA approved Bortezomib dose for relapsed myeloma patients to be […], if toxicity occurred, the subsequent dose of Bortezomib was going to be decreased to 0.7 mg/m^2. […] Other Bortezomib dose to be tested was 1.3 mg/m^2.

Data set [3] is described as follows: Pharmacokinetics of Vorinostat in the Phase I trial.

In the case of “9-fluoro-1′-beta,17,21-trihydroxy-16-alpha-methylpregna-1,4-diene-3,20-dione [dexamethasone]”, the “effect of added dexamethasone on response” value in data set [1] is given as “no upgrade in response”.
As to `O=C(CCCCCCC(=O)Nc1ccccc1)NO` [Vorinostat, N-Hydroxy-N′-phenyl octanediamide], the “toxicities defining the MTD in cycle 1” value in data set [2] is “grade 4 prolonged QT interval and grade 4 fatigue”. Besides, the “effect of administration after Bortezomib on pharmacokinetics” value in data set [3] (Vorinostat given after Bortezomib) is “did not affect pharmacokinetics”. The “dose dependence of pharmacokinetics” value in data set [3] (single oral dose, 100-500 mg) is on record as “linear”.
